The values below come from patent US12303590B2, “Method of treating osteoarthritis” (ORTHOTROPHIX, INC., priority 2018, dated 2025).

For data set [1] the following is noted: human, in vivo; cited from earlier work.
The test system of data set [2] is human osteoblastic mesenchymal stem cells. Particulars: U.S. Pat. Nos. 7,888,462 and 8,426,558; cited from earlier work.
In data set [3] the test system is defects in human molar. The conditions noted are these: both Phase 2 studies (alveolar bone and dentin); cited from earlier work.
The subject of data set [4] is subjects with bilateral patello-femoral knee osteoarthritis. In words: Randomized double-blind placebo-controlled study of TPX-100 in patients with osteoarthritis of the knees (Example 1). Format: in vivo, human. The method, then:
A multicenter, randomized double-blind, placebo-controlled study was designed to investigate the safety, tolerability, pharmacokinetics, and efficacy of TPX-100 administered in four weekly doses in subjects with bilateral patello-femoral knee osteoarthritis. The study was conducted under an open IND (investigational new drug application) at CDER (Center for Drug Evaluation and Research) of the U.S. FDA (The United States Food and Drug Administration) in compliance with GCP (Good Clinical Practice) and ICH (International Conference on Harmonization of Technical Requirements for Registration of Pharmaceuticals for Human Use) guidelines. Eighteen (18) orthopedic, rheumatologic and family practice centers in the U.S. participated in the study.
The study was divided into Part A and Part B. The Part A was designed to evaluate safety of intra-articular (I.A.) administration of TPX-100 at different dosing levels (20, 50, 100, or 200 mg per injection in sequential cohorts) in the subjects with osteoarthritis of the knees and to select a dose for Part B. Part B was to evaluate safety and efficacy of the selected dose of TPX-100.
Subjects in Part A were enrolled in sequential cohorts and randomized to receive 20, 50, 100 or 200 mg of TPX-100 in one knee (Index Knee) and identical placebo in the contralateral (Control) knee. Subjects, sites and sponsor and central MRI readers were blinded as to treatment assignment. A Safety Review Committee (SRC) evaluated safety in each dosing cohort. The SRC assessed safety and determined whether the next higher dosing regimen could be enrolled. All dosing cohorts in Part A were completed and analyzed with regard to safety prior to dose selection and initiation of Part B.
Part A included four (4) intra-articular (I.A.) injections, one per week, in sequential dosing cohorts of 20, 50, 100 and 200 mg TPX-100 versus placebo. Six (6) subjects were enrolled in 20, 50, and 100 mg cohorts, respectively, and nine (9) subjects were enrolled in the 200 mg cohort.
The 200 mg dose was selected for Part B based on safety review and the approval of the SRC. […] Per the Statistical Analysis Plan, these subjects were combined with the nine subjects in the 200 mg cohort of Part A for the efficacy analysis. In total, data from 93 subjects was analyzed for drug efficacy, each of whom received 4 once-weekly injections of TPX-100, 200 mg/dose, in the Index knee and identical placebo in the contralateral knee, as randomly assigned. […]
If all clinical inclusion and exclusion criteria were met, MRIs of both knees were obtained and evaluated by a central reader to determine the ICRS grade (gICRS) of each knee as the final screening criterion. […]

The test system of data set [5] is standardized large cartilage defects. Particulars: in vivo; cited from earlier work.

Peptide text beside a SMILES is read from it.

In the case of `N#Cc1c(N(CC(=O)[O-])CC(=O)[O-])sc(C(=O)[O-])c1CC(=O)[O-].[Sr+2].[Sr+2]` [strontium ranelate], the Adverse effect entry in data set [1] is on record as “increase the risk of myocardial infarction”.
Take “PDLLVRGDNDVPPFSGDGQHFMH [rat orthologue, TPX-100 orthologue (Rat/Mouse)]”: in data set [2], the Tritium-thymidine incorporation result is “promote tritium-thymidine incorporation”.
`CC[C@H](C)[C@H](NC(=O)[C@H](CC(=O)O)NC(=O)[C@H](CC(N)=O)NC(=O)[C@H](CC(=O)O)NC(=O)CNC(=O)[C@H](CCCNC(=N)N)NC(=O)[C@H](CCC(=O)O)NC(=O)[C@H](CCC(N)=O)NC(=O)[C@H](CC(C)C)NC(=O)[C@H](CC(=O)O)NC(=O)[C@@H](N)[C@@H](C)O)C(=O)N[C@@H](CO)C(=O)N1CCC[C@H]1C(=O)N[C@@H](Cc1ccccc1)C(=O)N[C@@H](CO)C(=O)NCC(=O)N[C@@H](CC(=O)O)C(=O)NCC(=O)N[C@@H](CCC(N)=O)C(=O)N1CCC[C@H]1C(=O)N[C@@H](Cc1ccccc1)C(=O)N[C@@H](CCCCN)C(=O)N[C@@H](CC(=O)O)C(N)=O` [TPX-100] (H-TDLQERGDNDISPFSGDGQPFKD-NH2; N-terminus assumed): in data set [3], the Tolerability entry is given as “well tolerated in both studies”. The Dose-limiting toxicities result in data set [4] (Part A, 20, 50, 100 and 200 mg per injection) is “no dose-limiting toxicities”. Also, the Severe adverse events entry in data set [4] (human, in vivo) is listed as “no severe adverse events that were related to TPX-100 treatment”. Also, the Treatment-related adverse events entry in data set [4] (human, in vivo) was “mild or moderate, transient”. Besides, the Safety and tolerability result in data set [4] (intra-articular, Days 0, 7, 14, 21) is “safe and well tolerated”; in data set [5], “safe and well-tolerated”.
